Experimental data published in patent US4017595A (Research Corporation, priority 1975, dated 1977).

Test: Organ distribution of Indium-113m EDTMP and DTPMP complexes in rabbits, simultaneous study with Strontium-85
Assay type: in vivo, adult albino rabbits
Conditions: DTPMP group; for % Dose/1% Bodyweight, Average Bone: mean of femur, tibia, spine and pelvis; for % Dose in Whole Organ, Blood / % Dose in Whole Organ, Kidney / % Dose in Whole Organ, Liver / % Dose in Whole Organ, Marrow / % Dose in Whole Organ, Muscle / % Dose in Whole Organ, One Femur / % Dose in Whole Organ, One Tibia / % Dose in Whole Organ, Urine / % Dose/1% Bodyweight, Blood / % Dose/1% Bodyweight, Femur / % Dose/1% Bodyweight, Kidney / % Dose/1% Bodyweight, Liver / % Dose/1% Bodyweight, Marrow / % Dose/1% Bodyweight, Muscle / % Dose/1% Bodyweight, Pelvis / % Dose/1% Bodyweight, Spine / % Dose/1% Bodyweight, Tibia / Ratio Bone/Blood / Ratio Bone/Marrow / Ratio Bone/Muscle: rabbit i.v.
Procedure: 0.5-1.0 mCi of the complexes prepared according to Examples 1 and 4 (containing 2-5 mg of the phosphonate complex) were injected intravenously into adult albino rabbits weighing 3.5-5 kg. […] Organ distribution characteristics of these compositions were determined after sacrificing the animals 1-4 hours after injection using the method described in Perez et al, J. Nucl. Med. 13:788-789, 1972; Subramanian et al, Radiology, 98:192-196, 1971; Subramanian et al, Radiology, 102:701-704, 1972; Subramanian et al, J. Nucl. Med., 13:947-950, 1972; Tofe et al, J. Nucl. Med., 15:69-74, 1974; Yano, J. Nucl Med., 14:73-78, 1973; Castronova et al, J. Nucl. Med., 13:823-827, 1972; and Subramanian et al, J. Nucl. Med., August, 1975 (U.S. application Ser. No. 368,473, filed June 11, 1973). Appropriate corrections were made for Strontium-85 contributions in the Indium-113m windows.
For each time interval 3 animals were used and average values are set forth. The average bone concentrations expressed as % dose/1% body weight: […]
% dose/1% body weight [formula] are the mean of the concentrations in bone samples from femur, tibia, spine and pelvis. This value was calculated for individual rabbits and the mean value of these averages are shown. The values for ratios were calculated in a similar manner.
With respect to Table 1, Strontium 85 was employed as a biological standard to compare the uptake in various organs of individual groups of animals. In quantifying the bone uptake, it is necessary to compare more than merely the indium concentration from one group to another. In addition, the ratios of indium to strontium from each group should be compared because of the individual variation of bone uptake in animals.

## O=P(O)(O)CN(CCN(CP(=O)(O)O)CP(=O)(O)O)CCN(CP(=O)(O)O)CP(=O)(O)O [DTPMP, diethylene triamine penta(methylene phosphonic) acid]
1 Hr.
  % Dose/1% Bodyweight, Average Bone: 5.14 % Dose/1% Bodyweight
  % Dose in Whole Organ, Blood: 8.61 % Dose
  % Dose in Whole Organ, Kidney: 2.43 % Dose
  % Dose in Whole Organ, Liver: 0.702 % Dose
  % Dose in Whole Organ, Marrow: 0.710 % Dose
  % Dose in Whole Organ, Muscle: 4.61 % Dose
  % Dose in Whole Organ, One Femur: 0.782 % Dose
  % Dose in Whole Organ, One Tibia: 0.641 % Dose
  % Dose in Whole Organ, Urine: 31.2 % Dose
  % Dose/1% Bodyweight, Blood: 1.23 % Dose/1% Bodyweight
  % Dose/1% Bodyweight, Femur: 3.57 % Dose/1% Bodyweight
  % Dose/1% Bodyweight, Kidney: 5.62 % Dose/1% Bodyweight
  % Dose/1% Bodyweight, Liver: 0.276 % Dose/1% Bodyweight
  % Dose/1% Bodyweight, Marrow: 0.322 % Dose/1% Bodyweight
  % Dose/1% Bodyweight, Muscle: 0.107 % Dose/1% Bodyweight
  % Dose/1% Bodyweight, Pelvis: 7.15 % Dose/1% Bodyweight
  % Dose/1% Bodyweight, Spine: 4.80 % Dose/1% Bodyweight
  % Dose/1% Bodyweight, Tibia: 3.39 % Dose/1% Bodyweight
  Ratio Bone/Blood: 4.17
  Ratio Bone/Marrow: 15.9
  Ratio Bone/Muscle: 48.0
2 Hr.
  % Dose/1% Bodyweight, Average Bone: 4.58 % Dose/1% Bodyweight
  % Dose in Whole Organ, Blood: 3.88 % Dose
  % Dose in Whole Organ, Kidney: 1.09 % Dose
  % Dose in Whole Organ, Liver: 0.453 % Dose
  % Dose in Whole Organ, Marrow: 0.340 % Dose
  % Dose in Whole Organ, Muscle: 1.92 % Dose
  % Dose in Whole Organ, One Femur: 0.648 % Dose
  % Dose in Whole Organ, One Tibia: 0.519 % Dose
  % Dose in Whole Organ, Urine: 65.7 % Dose
  % Dose/1% Bodyweight, Blood: 0.555 % Dose/1% Bodyweight
  % Dose/1% Bodyweight, Femur: 3.07 % Dose/1% Bodyweight
  % Dose/1% Bodyweight, Kidney: 2.40 % Dose/1% Bodyweight
  % Dose/1% Bodyweight, Liver: 0.173 % Dose/1% Bodyweight
  % Dose/1% Bodyweight, Marrow: 0.154 % Dose/1% Bodyweight
  % Dose/1% Bodyweight, Muscle: 0.044 % Dose/1% Bodyweight
  % Dose/1% Bodyweight, Pelvis: 6.15 % Dose/1% Bodyweight
  % Dose/1% Bodyweight, Spine: 4.59 % Dose/1% Bodyweight
  % Dose/1% Bodyweight, Tibia: 2.92 % Dose/1% Bodyweight
  Ratio Bone/Blood: 8.25
  Ratio Bone/Marrow: 29.7
  Ratio Bone/Muscle: 104
4 Hr.
  % Dose/1% Bodyweight, Average Bone: 4.79 % Dose/1% Bodyweight
  % Dose in Whole Organ, Blood: 3.08 % Dose
  % Dose in Whole Organ, Kidney: 1.03 % Dose
  % Dose in Whole Organ, Liver: 0.354 % Dose
  % Dose in Whole Organ, Marrow: 0.432 % Dose
  % Dose in Whole Organ, Muscle: 1.92 % Dose
  % Dose in Whole Organ, One Femur: 0.621 % Dose
  % Dose in Whole Organ, One Tibia: 0.471 % Dose
  % Dose in Whole Organ, Urine: 69.9 % Dose
  % Dose/1% Bodyweight, Blood: 0.441 % Dose/1% Bodyweight
  % Dose/1% Bodyweight, Femur: 2.97 % Dose/1% Bodyweight
  % Dose/1% Bodyweight, Kidney: 2.28 % Dose/1% Bodyweight
  % Dose/1% Bodyweight, Liver: 0.184 % Dose/1% Bodyweight
  % Dose/1% Bodyweight, Marrow: 0.196 % Dose/1% Bodyweight
  % Dose/1% Bodyweight, Muscle: 0.044 % Dose/1% Bodyweight
  % Dose/1% Bodyweight, Pelvis: 6.37 % Dose/1% Bodyweight
  % Dose/1% Bodyweight, Spine: 5.16 % Dose/1% Bodyweight
  % Dose/1% Bodyweight, Tibia: 2.76 % Dose/1% Bodyweight
  Ratio Bone/Blood: 10.8
  Ratio Bone/Marrow: 24.4
  Ratio Bone/Muscle: 108
